From patent US7396837B2, “Antitumoral analogs of lamellarins” (Pharma Mar, S.A.U., priority 2002, dated 2008)

How the values were obtained:
Format in all cases: cell-based
[1] = tested on: DU-145; assay: SRB colorimetric cell growth inhibition assay, DU-145; settings: Homo sapiens
Procedure, shortened: (§1)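 Human tumour cells were exposed continuously to the test sample, and growth and viability were quantified by sulforhodamine B staining. Means ± SD came from triplicate wells, and GI, TGI (cytostatic) and LC (cell killing) parameters were derived.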

[2] = tested on: HT-29; assay: SRB colorimetric cell growth inhibition assay, HT-29; settings: Homo sapiens
Procedure, shortened: as §1

[3] = tested on: SK-MEL-28; assay: SRB colorimetric cell growth inhibition assay, SK-MEL-28; settings: Homo sapiens
Procedure, shortened: as §1

[4] = tested on: LoVo; assay: SRB colorimetric cell growth inhibition assay, LoVo; settings: Homo sapiens, LoVo
Procedure, shortened: as §1

[5] = tested on: IGROV; assay: SRB colorimetric cell growth inhibition assay, IGROV; settings: Homo sapiens, IGROV
Procedure, shortened: as §1

[6] = tested on: LoVo-Dox; assay: SRB colorimetric cell growth inhibition assay, LoVo-Dox (MDR); settings: Homo sapiens
Procedure, shortened: as §1

[7] = tested on: A-549; assay: SRB colorimetric cell growth inhibition assay, A-549; settings: Homo sapiens
Procedure, shortened: as §1

[8] = tested on: PANC-1; assay: SRB colorimetric cell growth inhibition assay, PANC-1; settings: Homo sapiens
Procedure, shortened: as §1

[9] = tested on: SKOV-3; assay: SRB colorimetric cell growth inhibition assay, SKOV-3; settings: Homo sapiens
From the text: Inhibition of Cell Growth by Colorimetric Assay.
A colorimetric type of assay, using sulforhodamine B (SRB) reaction has been adapted for a quantitative measurement of cell growth and viability (following the technique described by P. A. Skehan, et al., J. Natl. Cancer Inst. 1990, 82, 1107-1112).
This form of assay employs 96 well cell culture microplates of 9 mm diameter (T. Mosmann et al., J. of Immunological Methods 1983, 65, 55-63; G. T. Faircloth et al., J. of Tissue and Culture Methods 1988, 11, 201-205).
Most of the cell lines are obtained from American Type Culture Collection (ATCC) derived from different human cancer types.
The values for mean +/− SD of data from triplicate wells are calculated. Some parameters for cellular responses can be calculated: GI=growth inhibition, TGI=total growth inhibition (cytostatic effect) and LC=cell killing (cytotoxic effect).

[10] = tested on: SK-BR-3; assay: SRB colorimetric cell growth inhibition assay, SK-BR-3; settings: Homo sapiens
Procedure, shortened: as §1

[11] = tested on: K-562; assay: SRB colorimetric cell growth inhibition assay, K-562; settings: Homo sapiens
Procedure, shortened: as §1

[12] = tested on: IGROV-ET; assay: SRB colorimetric cell growth inhibition assay, IGROV-ET (ET-743 resistant); settings: Homo sapiens
Procedure, shortened: as §1

## COc1cc(-c2c3c4cc(OC)c(OC(=O)[C@H](N)C(C)C)cc4oc(=O)c3n3ccc4c(OC(=O)[C@H](N)C(C)C)c(OC)c(OC)cc4c23)ccc1OC(=O)[C@H](N)C(C)C [Compound 43]
[1]; DU-145, DU-145, GI=growth inhibition, read-out: GI50 DU-145
  GI50: 0.0574 µM
[1]; DU-145, DU-145, TGI=total growth inhibition (cytostatic effect), read-out: TGI DU-145
  IC (TGI): 0.301 µM
[1]; DU-145, read-out: LC50 DU-145, DU-145, LC=cell killing (cytotoxic effect)
  CC50: 12.1 µM
[2]; HT-29, read-out: LC50 HT-29, HT-29, LC=cell killing (cytotoxic effect)
  CC50: 12.1 µM
[2]; HT-29, GI=growth inhibition, read-out: GI50 HT-29
  GI50: 12.1 µM
[2]; HT-29, TGI=total growth inhibition (cytostatic effect), read-out: TGI HT-29
  IC (TGI): 12.1 µM
[3]; SK-MEL-28, MEL-28, GI=growth inhibition, read-out: GI50 MEL-28
  GI50: 0.498 µM
[3]; SK-MEL-28, read-out: LC50 MEL-28, MEL-28, LC=cell killing (cytotoxic effect)
  CC50: 12.1 µM
[3]; SK-MEL-28, MEL-28, TGI=total growth inhibition (cytostatic effect), read-out: TGI MEL-28
  IC (TGI): 12.1 µM
[4]; read-out: LC50 LOVO, LOVO, LC=cell killing (cytotoxic effect)
  CC50: 12.1 µM
[4]; GI=growth inhibition, read-out: GI50 LOVO
  GI50: 0.635 µM
[4]; TGI=total growth inhibition (cytostatic effect), read-out: TGI LOVO
  IC (TGI): 3.72 µM
[5]; read-out: LC50 IGROV, IGROV, LC=cell killing (cytotoxic effect)
  CC50: 8.94 µM
[5]; GI=growth inhibition, read-out: GI50 IGROV
  GI50: 0.418 µM
[5]; TGI=total growth inhibition (cytostatic effect), read-out: TGI IGROV
  IC (TGI): 2.14 µM
[6]; LOVO-DOX, GI=growth inhibition, read-out: GI50 LOVO-DOX
  GI50: 0.937 µM
[6]; LOVO-DOX, TGI=total growth inhibition (cytostatic effect), read-out: TGI LOVO-DOX
  IC (TGI): 3.14 µM
[6]; read-out: LC50 LOVO-DOX, LOVO-DOX, LC=cell killing (cytotoxic effect)
  CC50: 9.84 µM
[7]; A549, A-549, GI=growth inhibition, read-out: GI50 A-549
  GI50: 1.9 µM
[7]; A549, A-549, TGI=total growth inhibition (cytostatic effect), read-out: TGI A-549
  IC (TGI): 12.1 µM
[7]; A549, read-out: LC50 A-549, A-549, LC=cell killing (cytotoxic effect)
  CC50: 12.1 µM
[8]; PANC-1, PANC-1, GI=growth inhibition, read-out: GI50 PANC-1
  GI50: 1.49 µM
[8]; PANC-1, PANC-1, TGI=total growth inhibition (cytostatic effect), read-out: TGI PANC-1
  IC (TGI): 6.57 µM
[8]; PANC-1, read-out: LC50 PANC-1, PANC-1, LC=cell killing (cytotoxic effect)
  CC50: 12.1 µM
[9]; SK-OV-3, SKOV-3, GI=growth inhibition, read-out: GI50 SKOV-3
  GI50: 0.146 µM
[9]; SK-OV-3, read-out: LC50 SKOV-3
  CC50: 12.1 µM
[9]; SK-OV-3, SKOV-3, TGI=total growth inhibition (cytostatic effect), read-out: TGI SKOV-3
  IC (TGI): 1.14 µM
[10]; SK-BR-3, SK-BR-3, GI=growth inhibition, read-out: GI50 SK-BR-3
  GI50: 0.212 µM
[10]; SK-BR-3, SK-BR-3, TGI=total growth inhibition (cytostatic effect), read-out: TGI SK-BR-3
  IC (TGI): 1.1 µM
[10]; SK-BR-3, read-out: LC50 SK-BR-3, SK-BR-3, LC=cell killing (cytotoxic effect)
  CC50: 7.9 µM
[11]; K562, K-562, GI=growth inhibition, read-out: GI50 K-562
  GI50: 0.118 µM
[11]; K562, K-562, TGI=total growth inhibition (cytostatic effect), read-out: TGI K-562
  IC (TGI): 0.565 µM
[11]; K562, read-out: LC50 K-562, K-562, LC=cell killing (cytotoxic effect)
  CC50: 12.1 µM
[12]; IGROV-ET, GI=growth inhibition, read-out: GI50 IGROV-ET
  GI50: 0.098 µM
[12]; IGROV-ET, TGI=total growth inhibition (cytostatic effect), read-out: TGI IGROV-ET
  IC (TGI): 3.24 µM
[12]; read-out: LC50 IGROV-ET, IGROV-ET, LC=cell killing (cytotoxic effect)
  CC50: 12.1 µM
